Data published in patent US7045624B2, “Compounds and their uses” (Conopco, Inc., priority 2002, dated 2006).

Assays:
[1] = Cooling effect of synthesised compounds (test not described); conditions: ability to elicit a cooling sensation; no test details given
[2] = test system: Neurons from trigeminal ganglia of Wistar rats; assay: Ca2+ response of cultured trigeminal neurons to test compounds (Fura-2 fluorescence); format: cell-based; conditions: 100 μM final test concentration; cellular Ca2+ levels, cultured rat trigeminal neurons; relative to compound 1 (icilin)
Protocol: The efficacy of different compounds according to the invention was tested in vitro, by exposing cultured neurons to the compounds and monitoring the cellular Ca^2+ levels.
The compounds were dissolved in DMSO by ultrasonication to a 0.1 M solution. 5 μl of this stock was added to 5 mg of cyclodextrin and 5 ml of 140 Na-tyrode, to achieve a 100 μM final test concentration.
Neurons from trigeminal ganglia of Wistar rats were prepared as described in U.S. Pat. No. 5,811,256. After 24 hours of cultivation, the responsiveness of the neurons to different compounds was measured according to the general procedure described by McKemy et al (Nature, Vol. 416, 2002, 52–58). The test protocol described by McKemy was modified slightly, by using the fluorescent Ca^2+ indicator Fura-2. Detection of the cellular fluorescence signals was performed by videomicroscopical analysis. The neurons were given a cold stimulus by a thermocoupling device and were subsequently tested for responsiveness to the test compounds by superfusion with solutions containing the test compounds while continuously monitoring the cellular Ca^2+ levels.
The results were recorded for compounds 1 to 3 and menthol, and are expressed below, as a percentage compared to the activity for compound 1 (icilin).

[3] = test system: mucous membranes (nostrils, lips and eyelids) of the researchers; conditions: in contact with mucous membranes (nostrils, lips and eyelids), also when ingested; cited from earlier work

For COc1cccc(C2=CCN(c3ccccc3O)C(=O)N2)c1 [1-(2′-hydroxyphenyl)-4-(3″-methoxyphenyl)-1,2,3,6-tetrahydropyrimidine-2-one], the cooling effect [1] was “good cooling effects”.
For O=C1NC(c2ccccc2)=CCN1c1ccccc1O [1-(2′-hydroxyphenyl)-4-phenyl-1,2,3,6-tetrahydropyrimidine-2-one], the cooling effect [1] was “good cooling effects”.
For O=C1NC(c2cccc([N+](=O)[O-])c2)=CCN1c1ccccc1C(F)(F)F [1-(2′-trifluoromethylphenyl)-4-(3″-nitrophenyl)-1,2,3,6-tetrahydropyrimidine-2-one], the cooling effect [1] was “good cooling effects”.
With O=C1NC(c2cccc([N+](=O)[O-])c2)=CCN1c1ccccc1 [1-phenyl-4-(3″-nitrophenyl)-1,2,3,6-tetrahydropyrimidine-2-one] the cooling effect [1] was “good cooling effects”.
For O=C1NC(c2ccccc2[N+](=O)[O-])=CCN1c1ccccc1O [Compound 1, 1-[2-hydroxyphenyl]-4-[2-nitrophenyl]-1,2,3,6-tetrahydropyrimidine-2-one], the “Activity (% relative to Compound 1)” value [2] is given as 100% and the sensations of coldness [3] is given as “produced sensations of coldness”.
In the case of O=C1NC(c2cccc(Cl)c2)=CCN1c1ccccc1O [Compound 3, 1-(2′-hydroxyphenyl)-4-(3″-chlorophenyl)-1,2,3,6-tetrahydro-pyrimidine-2-one], the “Activity (% relative to Compound 1)” value [2] is reported as 35%.
With CC1CCC(C(C)C)C(O)C1 (centres unmarked) [Menthol, 2-isopropyl-5-methyl-cyclohexanol] the “Activity (% relative to Compound 1)” value [2] was 42%.
